System: SEM cells
Assay: cell viability relative to DMSO control; higher = less cytotoxic
Details: 48 h
Procedure, shortened: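 Three leukemia lines were tested: NOMO1 and SEM at 500 cells/well and P12-Ichikawa at 1000 cells/well. Each was adapted for at least four passages in each medium and seeded in 5 μl in 1536-well plates, and library compounds in DMSO were pin-dosed from 47 μM to 0.79 nM in 11 threefold steps. After 48 h at 37°C, CellTiter-Glo One luminescence was read. Viability is a percentage relative to DMSO wells on each plate, with cell-free wells as background.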

[1] = HPLM + 10% dialyzed FBS, 0.000781 µM
[2] = HPLM + 10% dialyzed FBS, 0.00234 µM
[3] = HPLM + 10% dialyzed FBS, 0.00702 µM
[4] = HPLM + 10% dialyzed FBS, 0.0211 µM
[5] = HPLM + 10% dialyzed FBS, 0.0632 µM
[6] = HPLM + 10% dialyzed FBS, 0.19 µM
[7] = HPLM + 10% dialyzed FBS, 0.569 µM
[8] = HPLM + 10% dialyzed FBS, 1.71 µM
[9] = HPLM + 10% dialyzed FBS, 5.12 µM
[10] = HPLM + 10% dialyzed FBS, 15.4 µM
[11] = HPLM + 10% dialyzed FBS, 46.1 µM
[12] = RPMI 5 mM glucose + 10% FBS, 0.000781 µM
[13] = RPMI 5 mM glucose + 10% FBS, 0.00234 µM
[14] = RPMI 5 mM glucose + 10% FBS, 0.00702 µM
[15] = RPMI 5 mM glucose + 10% FBS, 0.0211 µM
[16] = RPMI 5 mM glucose + 10% FBS, 0.0632 µM
[17] = RPMI 5 mM glucose + 10% FBS, 0.19 µM
[18] = RPMI 5 mM glucose + 10% FBS, 0.569 µM
[19] = RPMI 5 mM glucose + 10% FBS, 1.71 µM
[20] = RPMI 5 mM glucose + 10% FBS, 5.12 µM
[21] = RPMI 5 mM glucose + 10% FBS, 15.4 µM
[22] = RPMI 5 mM glucose + 10% FBS, 46.1 µM
[23] = RPMI 5 mM glucose + 10% dialyzed FBS, 0.000781 µM
[24] = RPMI 5 mM glucose + 10% dialyzed FBS, 0.00234 µM
[25] = RPMI 5 mM glucose + 10% dialyzed FBS, 0.00702 µM
[26] = RPMI 5 mM glucose + 10% dialyzed FBS, 0.0211 µM
[27] = RPMI 5 mM glucose + 10% dialyzed FBS, 0.0632 µM
[28] = RPMI 5 mM glucose + 10% dialyzed FBS, 0.19 µM
[29] = RPMI 5 mM glucose + 10% dialyzed FBS, 0.569 µM
[30] = RPMI 5 mM glucose + 10% dialyzed FBS, 1.71 µM
[31] = RPMI 5 mM glucose + 10% dialyzed FBS, 5.12 µM
[32] = RPMI 5 mM glucose + 10% dialyzed FBS, 15.4 µM
[33] = RPMI 5 mM glucose + 10% dialyzed FBS, 46.1 µM

Row | Compound | cell viability [1] [%] | cell viability [2] [%] | cell viability [3] [%] | cell viability [4] [%] | cell viability [5] [%] | cell viability [6] [%] | cell viability [7] [%] | cell viability [8] [%] | cell viability [9] [%] | cell viability [10] [%] | cell viability [11] [%] | cell viability [12] [%] | cell viability [13] [%] | cell viability [14] [%] | cell viability [15] [%] | cell viability [16] [%] | cell viability [17] [%] | cell viability [18] [%] | cell viability [19] [%] | cell viability [20] [%] | cell viability [21] [%] | cell viability [22] [%] | cell viability [23] [%] | cell viability [24] [%] | cell viability [25] [%] | cell viability [26] [%] | cell viability [27] [%] | cell viability [28] [%] | cell viability [29] [%] | cell viability [30] [%] | cell viability [31] [%] | cell viability [32] [%] | cell viability [33] [%]
1 | O=C1CCC[C@@H]2[C@H]3CCCN4CCC[C@@H](CN12)[C@@H]34 | 44.2 | 65.4 | 55.2 | 65.6 | 72.7 | 73.2 | 72.3 | 78.1 | 67.5 | 71.3 | 73 | 73 | 87 | 75.5 | 82.4 | 92.8 | 92.2 | 93.2 | 84 | 63.1 | 80 | 72.6 | 60.4 | 79.1 | 62.4 | 89.7 | 73.9 | 82.6 | 77.6 | 72.3 | 64.2 | 68.5 | 68.3
2 | CCOC(=O)C(C#N)C\1C2=CC(=CC=C2O\C(=C1C(=O)OCC)N)Br (stereo unspecified) | 93.4 | 102 | 117 | 49.8 | 113 | 99.9 | 99.5 | 105 | 95.1 | 86.1 | 63.8 | 113 | 116 | 114 | 44.5 | 116 | 117 | 113 | 113 | 101 | 98 | 57.6 | 84.8 | 99.1 | 103 | 49.8 | 108 | 99.1 | 83.6 | 105 | 87.2 | 82.3 | 55.2
3 | CC(C)N(C[C@H]1O[C@@H](n2cnc3c(N)ncnc32)[C@H](O)[C@@H]1O)[C@H]1C[C@@H](CCc2nc3cc(C(C)(C)C)ccc3[nH]2)C1 | 85.1 | 87.1 | 101 | 90.5 | 82 | 95.7 | 96.6 | 100 | 82 | 85.4 | 4.22 | 104 | 124 | 131 | 112 | 115 | 128 | 102 | 36.3 | 19 | 21 | 5.01 | 86.3 | 100 | 105 | 88.2 | 92.8 | 103 | 113 | 100 | 47.6 | 49 | 4.49
4 | OC1=CC=C(C=C1)\C2=C\OC3=C(C(=CC(=C3)O)O)C2=O | 95.4 | 109 | 96.8 | 105 | 108 | 119 | 112 | 79.1 | 105 | 102 | 74.8 | 93.1 | 82.2 | 89.8 | 86 | 91 | 95.7 | 94.2 | 56.6 | 91.9 | 72.7 | 36.2 | 94.5 | 103 | 104 | 102 | 119 | 115 | 115 | 65.1 | 92.6 | 101 | 59
5 | COc1cc(CCc2cc(NC(=O)c3ccc(N4C[C@@H](C)N[C@@H](C)C4)cc3)n[nH]2)cc(OC)c1 | 109 | 125 | 131 | 128 | 127 | 52 | 85.8 | 77 | 64.4 | 29.8 | 18 | 111 | 113 | 117 | 123 | 96.1 | 47.8 | 80.7 | 66.2 | 63.5 | 29.7 | 19.5 | 122 | 122 | 124 | 125 | 101 | 52.1 | 96.2 | 87.7 | 64.1 | 31.6 | 18.5
6 | C[C@@H]1CCN(C(=O)CC#N)C[C@@H]1N(C)c1ncnc2[nH]ccc12 | 85 | 92.5 | 81.5 | 85.7 | 91 | 77.4 | 67.4 | 80 | 67 | 73.1 | 78.6 | 96.6 | 99.5 | 79.5 | 97.4 | 103 | 104 | 99.3 | 98.5 | 80 | 90.7 | 95.3 | 112 | 104 | 77.5 | 109 | 105 | 92.4 | 82.1 | 94 | 57.9 | 83.5 | 88.4
7 | N#CC(c1ccnc(NCCc2cccnc2)n1)c1nc2ccccc2s1 (stereo unspecified) | 110 | 122 | 118 | 117 | 126 | 136 | 134 | 131 | 144 | 137 | 115 | 105 | 105 | 144 | 125 | 133 | 118 | 124 | 132 | 140 | 132 | 120 | – | – | – | – | – | – | – | – | – | – | –
8 | CC(C)=CCC/C(C)=C/CC/C(C)=C/CC/C(C)=C/CC/C(C)=C/CC/C(C)=C/CC/C(C)=C/CC/C(C)=C/CC/C(C)=C/CO | 94.8 | 109 | 103 | 99.7 | 91.2 | 98.9 | 115 | 77.8 | 100 | 85.5 | 119 | 109 | 105 | 121 | 96.9 | 104 | 111 | 114 | 60.7 | 107 | 60.5 | 102 | 99.4 | 99.6 | 95.6 | 102 | 105 | 100 | 108 | 61.6 | 78.4 | 63.4 | 89.3
9 | C[C@@H]1CN(Cc2ccc(F)cc2)[C@@H](C)CN1C(=O)c1cc2c(C(=O)C(=O)N(C)C)cn(C)c2cc1Cl | 97.6 | 99.7 | 100 | 111 | 111 | 109 | 106 | 102 | 85.6 | 98.2 | 97.2 | 84.5 | 78.1 | 85 | 87.2 | 101 | 91.1 | 96.8 | 87.4 | 97.6 | 72.3 | 57 | 115 | 104 | 110 | 107 | 119 | 108 | 108 | 109 | 82.3 | 97.2 | 75.4
10 | CN1C(=O)C(=C\C2=C1N=C(NC3=CC=CC(=C3)C(O)=O)N=C2)/C4=C(Cl)C=CC=C4Cl | 106 | 114 | 108 | 112 | 110 | 116 | 107 | 110 | 104 | 67.4 | 31.9 | 103 | 124 | 132 | 114 | 125 | 123 | 90.9 | 101 | 84.2 | 65.6 | 25 | 106 | 118 | 136 | 130 | 121 | 115 | 100 | 116 | 97 | 73.1 | 37.8
11 | Cc1cn([C@H]2C=C[C@@H](CO)O2)c(=O)[nH]c1=O | 88.9 | 106 | 104 | 124 | 114 | 99.6 | 109 | 130 | 127 | 112 | 103 | 89.5 | 110 | 109 | 108 | 110 | 107 | 117 | 110 | 104 | 126 | 106 | 91.2 | 93.9 | 104 | 112 | 118 | 96.4 | 107 | 125 | 116 | 104 | 74.2
12 | [O-]C(=O)C/1=N/C(=O)NC(=O)N1 | 95.8 | 99.2 | 93.4 | 111 | 85.1 | 20.6 | 94.8 | 99.8 | 100 | 91.6 | 84.3 | 93.7 | 99.6 | 95.6 | 93.6 | 87.4 | 34.2 | 90.8 | 83.7 | 100 | 88.1 | 83.7 | 97.1 | 100 | 101 | 106 | 100 | 34.7 | 96.8 | 89.8 | 104 | 88.7 | 91.8
13 | CCOc1cc2ncc(C#N)c(Nc3ccc(F)c(Cl)c3)c2cc1NC(=O)/C=C/CN(C)C | 88.3 | 118 | 120 | 123 | 118 | 73.1 | 71 | 55.6 | 37.4 | 20.1 | 4.15 | 75.1 | 110 | 108 | 114 | 116 | 58.9 | 52.1 | 40.2 | 24.5 | 11.5 | 3.17 | 79.9 | 115 | 131 | 120 | 126 | 66.2 | 67.3 | 52 | 29.9 | 11.7 | 3.53
14 | Cc1ccc([N+](=O)[O-])cc1[S+](=O)([O-])N(C)/N=C/c1cnc2ccc(Br)cn12 | 106 | 118 | 96.1 | 75.7 | 74.5 | 13.9 | 8.58 | 5.5 | 5.52 | 4.94 | 4.47 | – | – | – | – | – | – | – | – | – | – | – | 112 | 99.8 | 92.9 | 95.3 | 77.1 | 19.8 | 6.67 | 5.43 | 4.76 | 4.76 | 3.83
15 | COc1ccc(C(CN(C)C)C2(O)CCCCC2)cc1 (stereo unspecified) | 83.7 | 134 | 106 | 134 | 124 | 118 | 106 | 107 | 117 | 116 | 104 | 78.5 | 132 | 122 | 110 | 124 | 125 | 103 | 112 | 119 | 120 | 95.9 | 64.9 | 120 | 122 | 134 | 163 | 138 | 115 | 122 | 148 | 118 | 135
16 | CCOC(=O)N1c2ccc(C(F)(F)F)cc2[C@@H](N(Cc2cc(C(F)(F)F)cc(C(F)(F)F)c2)C(=O)OC)C[C@H]1CC | 121 | 111 | 124 | 124 | 117 | 113 | 105 | 113 | 109 | 125 | 109 | 104 | 108 | 115 | 121 | 116 | 110 | 103 | 109 | 109 | 103 | 97.3 | 118 | 108 | 118 | 113 | 129 | 113 | 118 | 117 | 120 | 127 | 116
